Reference: US10660967B2, “Curcumin conjugates and methods of use thereof” (priority 2016, dated 2020)
Where two headings read alike, the source gives them in different places.

Experiments:
[1] = test system: PHA-stimulated splenocytes; test: Proliferative response of PHA-stimulated splenocytes (MTT assay); assay type: cell-based; conditions: for Stimulation Index (average ± SD): PHA 5 μg/ml, 72 hr, compounds at 5 μM (method says 10 μM), ratio of O.D. versus vehicle control
Description: Immunomodulatory effects of the synthesized curcumin conjugates on the proliferative response of PHA-stimulated splenocytes were evaluated. The effect of curcumin and its amino acid conjugates on splenocyte viability and proliferation in response to a T cell miotgen (Phytohaemagglutinin; PHA) was evaluated using the MTT assay. Freshly prepared splenocytes (1×10^6 cells/200 μl/well) were cultured in a 96-well U-bottom microtiter plate (Nunc) in complete medium. Cells were treated with tested compounds at a final concentration of 10 μM, vehicle (DMSO) or left untreated in triplicate then incubated at 37° C. and 5% CO2. When testing the immunoregulatory effects of the compounds on splenocyte stimulation, PHA (5 μg/ml) was added to the culture media to induce T cell proliferation. The proliferative response to PHA+vehicle and vehicle alone served as controls. After 72 hr, media were removed after pelleting the cells by centrifugation and MTT salt solution (5 mg/ml) was added into each well then incubated at 37° C. for 4 h. Afterwards, formazan crystals were dissolved by adding 150 μl 10% sodium dodecyl sulfate (SDS). Absorbance was measured with a spectrophotometer at 570 nm and reference wavelength of 690 nm.
Splenocyte stimulation index was determined as the ratio of O.D. values in tested compounds versus vehicle control cultures.

[2] = test system: lipopolysaccharide-stimulated peritoneal macrophages; test: Production of nitric oxide by lipopolysaccharide-stimulated peritoneal macrophages (Greiss reagent); assay type: cell-based; design: Potency (%): % inhibition of nitric oxide production relative to lipopolysaccharide-stimulated macrophages: concentration or dose not given beside the values; conditions: LPS-stimulated peritoneal macrophages; for Nitric oxide (nitrite) concentration, μM (average ± SD): 24 h, nitrite by Greiss reagent
Description: The effects of the synthesized curcumin conjugates on the production of nitric oxide (μM) by lipopolysaccharide-stimulated peritoneal macrophages were evaluated.
Two milliliters of macrophage cells were seeded in 12-well tissue culture plates in nitrite-free medium supplemented with 0.1% bovine serum albumin and incubated at 37° C. LPS±epinephrine, norepinephrine, or dopamine at […] concentrations was added to some wells. The concentrations of LPS used ranged from 0.5 to 10 ng/ml. After incubation for 24 h, supernatants were collected for measuring nitric oxide (NO) by spectrophotometry. The production of NO was determined from the accumulation of nitrite (NO2), the metabolic end product of NO metabolism, in the medium using the Greiss reagent. About equal volumes (100 μl) of sample and Greiss reagent (1:1 mixture of 1% sulfanilamide in 5% phosphoric acid, and 0.1% a-naphthylamine in distilled water) were mixed and incubated at room temperature for 15 min, and absorbance was measured at 532 nm on a spectrophotometer.

[3] = test system: Salmonella typhi ATCC19430; test: Antimicrobial MIC, agar dilution; assay type: cell-based; conditions: Salmonella enterica, read-out: Minimum inhibitory concentration (MIC)
[4] = test system: HCT116 (colon) carcinoma cell line; test: Anti-tumor properties, MTT; assay type: cell-based; conditions: Homo sapiens, HCT-116, 72 h; for activity at 100 µM: HCT116, 100 μM, read-out: Percentage growth of tumor cell lines treated with the tested compounds (±SD)
Description: (§1) Anti-tumor properties of curcumin conjugates were evaluated. The synthesized curcumin-amino acid conjugates and curcumin itself were screened for their antitumor properties against human tumor cell lines utilizing HepG2 (hepatocellular), MCF7 (breast), and HCT116 (colon) carcinoma cell lines by the standard mitochondrial dependent reduction of yellow MTT [3-(4,5-dimethylthiazol-2-yl)-2,5-diphenyl-tetrazolium bromide] to purple formazan technique. Cancer cells were obtained from the Egyptian Company for Production of Vaccines, Sera and Drugs (VACSERA), Cairo, Egypt. Media, chemicals and supplies for the bio-assay were obtained from Biowest, Gibco and Lonza Companies. Cells were suspended in RPMI-1640 medium for HepG2, DMEMF12 for MCF-7, and DMEM for HCT116 in addition to 1% antibiotic-antimycotic mixture (10 […] potassium penicillin, 10 […] streptomycin sulfate and […] amphotericin B), 10% fetal bovine serum and 1% L-glutamine at 37° C., under 5% CO2 and 95% humidity. Cells were seeded at a concentration of 10×10^3 cells per well in fresh complete growth medium in 96-well tissue culture microtiter plates for 24 h. Media was aspirated, 180 μL fresh medium (without serum) were added and cells were incubated with different concentrations of sample to give a final concentration of 100 μM. 0.5% DMSO was used as a negative control and doxorubicin was used as a positive control (standard reference). Triplicate wells were prepared for each individual tested compound/dose. After 72 h of incubation, the medium was aspirated, 40 μL MTT salt (2.5 mg ml^1) were added to each well and incubated for an additional 4 h at 37° C. To stop the reaction and dissolve the formed crystals, 200 μL of 10% sodium dodecyl sulfate (SDS) in deionized water were added to each well and incubated overnight at 37° C. The absorbance was then measured at 595 nm with a reference wavelength of 620 nm. Data were collected as mean values for experiments performed in triplicates for each compound which had been measured by MTT assay.
(§2) The percentage of cell survival was calculated according to equation (4): […]
(§3) The IC50 was determined using Graph-Pad PRISM version-5 software. Statistical calculations for determination of the mean and standard deviation (SD) values were determined by SPSS 16 software.

[5] = test system: HepG2 (hepatocellular) carcinoma cell line; test: Anti-tumor properties, MTT; assay type: cell-based; conditions: Homo sapiens, 72 h; for activity at 100 µM: HepG2, 100 μM, read-out: Percentage growth of tumor cell lines treated with the tested compounds (±SD)
Description: as §1, §2, §3

[6] = test system: MCF7 (breast) carcinoma cell line; test: Anti-tumor properties, MTT; assay type: cell-based; conditions: Homo sapiens, 72 h; for activity at 100 µM: MCF7, 100 μM, read-out: Percentage growth of tumor cell lines treated with the tested compounds (±SD)
Description: as §1, §2, §3

MCF-7 cells = test: Effect on doxorubicin induced cytotoxicity (MTT); conditions: for viability at 100 µM: read-out: Percentage of viable cells MCF-7 (average ± SD)
Description: The effects of curcumin conjugates on doxorubicin induced cytotoxicity were evaluated. In order to further examine whether curcumin derivatives can enhance conventional chemotherapeutic agents, MCF-7 cells were treated with 100 μM curcumin derivatives alone or in combination with 10 μM doxorubicin (DOX) for 48 hr. Control cultures received only medium, vehicle (DMSO), or vehicle+DOX. The percentage of viable cells was determined by MTT assay according to equation (5): […]

[7] = test system: Staphylococcus aureus ATCC25923; test: Antimicrobial MIC, agar dilution
[8] = test system: Streptococcus pyogenes ATCC19615; test: Antimicrobial MIC, agar dilution
[9] = test system: Pseudomonas aeruginosa ATCC27853; test: Antimicrobial MIC, agar dilution
[10] = test system: Candida albicans (local isolate); test: Antimicrobial MIC, agar dilution; conditions: Candida albicans, read-out: Minimum inhibitory concentration (MIC)
[11] = 10 μM DOX in combination with 100 μM curcumin derivative, 48 hr
[12] = ATCC25923, 18 h, read-out: Minimum inhibitory concentration (MIC)
[13] = ATCC25923, read-out: Minimum inhibitory concentration (MIC)
[14] = ATCC19615, 18 h, read-out: Minimum inhibitory concentration (MIC)
[15] = ATCC19615, read-out: Minimum inhibitory concentration (MIC)
[16] = ATCC27853, 18 h, read-out: Minimum inhibitory concentration (MIC)
[17] = ATCC27853, read-out: Minimum inhibitory concentration (MIC)

SMILES	Stimulation Index (average ± SD) [1]	Potency (%): % inhibition of nitric oxide production relative to lipopolysaccharide-stimulated macrophages [2] [%]	Nitric oxide (nitrite) concentration, μM (average ± SD) [2] [µM]	MIC ([3]; 18 h) [µg/mL]	MIC [3] [µM]	activity at 100 µM [4] [%]	activity at 100 µM [5] [%]	activity at 100 µM [6] [%]	Percentage of viable cells MCF-7 (average ± SD) (MCF-7 cells; [11])	viability at 100 µM (MCF-7 cells; Homo sapiens, MCF7, 48 h) [%]	MIC [7, 12] [µg/mL]	MIC [7, 13] [µM]	MIC [8, 14] [µg/mL]	MIC [8, 15] [µM]	MIC [9, 16] [µg/mL]	MIC [9, 17] [µM]	MIC ([10]; 18 h) [µg/mL]	MIC [10] [µM]	further results
COc1cc(/C=C/C(=O)CC(=O)/C=C/c2ccc(OC(=O)[C@H](C)NC(=O)OCc3ccccc3)c(OC)c2)ccc1OC(=O)[C@H](C)NC(=O)OCc1ccccc1 [Cbz-Ala-Cur, ((1E,6E)-3,5-dioxohepta-1,6-diene-1,7-diyl)bis(2-methoxy-4,1-phenylene) (2S,2′S)-bis(2-(((benzyloxy)carbonyl)amino)propanoate)]	2.70 ± 0.25	8.86	24.89 ± 1.65	0.5	0.642	86.6 ± 6.2	82.3 ± 4.2	70 ± 4.1	46.65 ± 2.06	99.5 ± 4.47	0.25	0.321	0.125	0.161	2	2.57	2	2.57	
COc1cc(/C=C/C(=O)CC(=O)/C=C/c2ccc(OC(=O)CNC(=O)OCc3ccccc3)c(OC)c2)ccc1OC(=O)CNC(=O)OCc1ccccc1 [Cbz-Gly-Cur, ((1E,6E)-3,5-dioxohepta-1,6-diene-1,7-diyl)bis(2-methoxy-4,1-phenylene) bis(2-(((benzyloxy)carbonyl)amino)acetate)]	2.64 ± 0.10	10.11	24.55 ± 0.66	0.5	0.666	88.1 ± 2.6	79.8 ± 8.8	60 ± 2.7	45.44 ± 1.88	97.4 ± 5.3	0.125	0.166	0.125	0.166	1	1.33	0.5	0.666	
COc1cc(/C=C/C(=O)CC(=O)/C=C/c2ccc(OC(=O)[C@H](CC(C)C)NC(=O)OCc3ccccc3)c(OC)c2)ccc1OC(=O)[C@H](CC(C)C)NC(=O)OCc1ccccc1 [Cbz-Leu-Cur, ((1E,6E)-3,5-dioxohepta-1,6-diene-1,7-diyl)bis(2-methoxy-4,1-phenylene) (2S,2′S)-bis(2-(((benzyloxy)carbonyl)amino)-4-methylpentanoate)]	2.83 ± 0.17	4.57	26.06 ± 0.65	0.25	0.29	94.7 ± 5.8	85.1 ± 5.7	85.7 ± 1.2	50.17 ± 4.94	98.2 ± 3.44	0.125	0.145	0.125	0.145	0.125	0.145	0.5	0.579	
COc1cc(/C=C/C(=O)CC(=O)/C=C/c2ccc(OC(=O)[C@H](Cc3ccccc3)NC(=O)OCc3ccccc3)c(OC)c2)ccc1OC(=O)[C@H](Cc1ccccc1)NC(=O)OCc1ccccc1 [Cbz-Phe-Cur, ((1E,6E)-3,5-dioxohepta-1,6-diene-1,7-diyl)bis(2-methoxy-4,1-phenylene) (2S,2′S)-bis(2-(((benzyloxy)carbonyl)amino)-3-phenylpropanoate)]	2.91 ± 0.13	3.60	26.33 ± 0.52	0.125	0.134	96.4 ± 4	99.6 ± 8.7	69.3 ± 3	43.40 ± 4.74	105 ± 4.5	0.125	0.134	0.125	0.134	0.25	0.269	2	2.15	splenocyte proliferation, fold relative to untreated control cells ([1]; in the presence of PHA, text of b265): 3.81 fold
COc1cccc2c1C(=O)c1c(O)c3c(c(O)c1C2=O)C[C@@](O)(C(=O)CO)C[C@@H]3O[C@H]1C[C@H](N)[C@H](O)[C@H](C)O1 [DOX, doxorubicin, reference compound]																			IC50 ([4]; HCT116, MTT, read-out: IC50): 7.17 µM; IC50 ([5]; HepG2, MTT, read-out: IC50): 34.2 µM; IC50 ([6]; MCF7, MTT, read-out: IC50): 20.9 µM; viability at 10 µM (MCF-7 cells; Homo sapiens, MCF7, 48 h, read-out: Percentage of viable cells MCF-7 (average ± SD), 10 μM DOX in combination with 100 μM curcumin derivative, 48 hr): 44.8%; Percentage of viable cells MCF-7 (average ± SD) (MCF-7 cells; human, 48 h, 100 μM): 0 ± 0.00
